# Test results from paper PMC5343058 (The Korean Journal of Physiology & Pharmacology : Official …, 2017).
# Target: T1, hSlo3+hLRRC52 (Homo sapiens, UniProt A8MYU2)
# T1 sequence (A8MYU2 1-1149): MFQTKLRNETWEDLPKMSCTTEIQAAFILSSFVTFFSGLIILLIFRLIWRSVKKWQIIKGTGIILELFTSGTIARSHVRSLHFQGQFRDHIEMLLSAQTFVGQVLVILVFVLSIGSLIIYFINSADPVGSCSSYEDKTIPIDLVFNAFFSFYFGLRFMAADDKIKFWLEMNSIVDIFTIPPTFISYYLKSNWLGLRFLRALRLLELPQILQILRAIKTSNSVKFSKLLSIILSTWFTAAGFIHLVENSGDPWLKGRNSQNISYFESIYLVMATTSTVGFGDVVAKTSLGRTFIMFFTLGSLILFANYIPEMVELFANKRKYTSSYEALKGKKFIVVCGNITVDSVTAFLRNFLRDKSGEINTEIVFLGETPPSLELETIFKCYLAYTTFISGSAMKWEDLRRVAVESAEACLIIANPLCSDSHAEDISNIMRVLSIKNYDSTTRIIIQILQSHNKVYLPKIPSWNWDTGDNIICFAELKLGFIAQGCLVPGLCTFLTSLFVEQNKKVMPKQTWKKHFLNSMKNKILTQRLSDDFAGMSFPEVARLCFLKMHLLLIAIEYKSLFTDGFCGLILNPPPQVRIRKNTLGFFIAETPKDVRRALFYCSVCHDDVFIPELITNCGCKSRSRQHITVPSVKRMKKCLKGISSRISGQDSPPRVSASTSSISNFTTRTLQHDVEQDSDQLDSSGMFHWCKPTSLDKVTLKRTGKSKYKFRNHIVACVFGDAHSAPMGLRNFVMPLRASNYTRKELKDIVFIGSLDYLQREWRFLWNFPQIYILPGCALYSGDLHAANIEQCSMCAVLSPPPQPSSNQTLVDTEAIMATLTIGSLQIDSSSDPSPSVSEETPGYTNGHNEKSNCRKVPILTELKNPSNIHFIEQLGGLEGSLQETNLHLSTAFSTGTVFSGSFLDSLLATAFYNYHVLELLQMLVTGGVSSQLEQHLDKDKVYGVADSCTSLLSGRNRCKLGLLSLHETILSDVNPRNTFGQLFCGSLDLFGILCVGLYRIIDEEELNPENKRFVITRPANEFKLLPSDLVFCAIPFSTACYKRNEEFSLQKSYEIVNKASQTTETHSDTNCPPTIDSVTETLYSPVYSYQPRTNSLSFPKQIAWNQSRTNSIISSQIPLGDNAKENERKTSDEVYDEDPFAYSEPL
# T1 sequence (Q8N7C0 24-313 partner): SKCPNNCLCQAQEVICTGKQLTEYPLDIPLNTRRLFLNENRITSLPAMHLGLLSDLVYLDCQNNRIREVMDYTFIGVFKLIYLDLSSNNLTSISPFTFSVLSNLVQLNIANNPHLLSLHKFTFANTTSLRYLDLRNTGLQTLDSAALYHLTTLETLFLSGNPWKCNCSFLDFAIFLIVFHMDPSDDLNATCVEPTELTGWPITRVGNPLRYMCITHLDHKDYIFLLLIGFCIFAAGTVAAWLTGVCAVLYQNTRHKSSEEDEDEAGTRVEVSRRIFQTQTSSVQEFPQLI
# Test: whole-cell patch clamp, HEK293, voltage ramp
# Assay type: cell-based
# Conditions: HEK293, read-out: % inhibition at 20 mM
smiles,measurement,value
CC[N+](CC)(CC)CC [TEA],inhibition at 20000 µM,41 ± 5.19%
